Source: patent publication US5561133A, “Thymidylate synthase inhibiting quinazolinones” (British Technology Group Limited, priority 1992, dated 1996)
pIC50: −log10 of the molar value.

What was measured:
[1] = system: L1210 cell line; assay: inhibition of growth of the leukaemia cell line L1210 in cell culture; type: cell-based; conditions: Mus musculus, read-out: IC50 against the L1210 cell line
Description: (b) An assay which determines the ability of a test compound to inhibit the growth of the leukaemia cell line L1210 in cell culture. The test may be similar to that described in UK Patent Specification No. 2065653B; and […]

[2] = system: MCF-7 cell line; assay: inhibition of growth of the human breast cancer cell line MCF-7 in cell culture; type: cell-based; conditions: MCF7, MCF-7 cell culture, read-out: IC50 against the MCF-7 cell line
Description: (c) An assay which determines the ability of a test compound to inhibit the growth of the human breast cancer cell line MCF-7 in cell culture. The test may be similar to that described by Lippman et al (Cancer Res., 1976, 36, 4595).

[3] = system: human breast,ovarian and liver cancer; conditions: clinical, humans; cited from earlier work
[4] = particularly liver and kidneys; cited from earlier work

| pIC50 [1] | pIC50 [2] | SMILES | activity against human breast, ovarian and liver cancer [3] | toxicity in humans [4] |
| --- | --- | --- | --- | --- |
| 6.62 | 6.52 | C#CCN(Cc1ccc2nc(C)[nH]c(=O)c2c1)c1ccc(C(=O)N[C@@H](CCC(=O)N(C)[C@@H](CCC(=O)O)C(=O)O)C(=O)O)cc1 [Example 1, N-p-[N-(3,4-Dihydro-2-methyl-4-oxoquinazolin-6-ylmethyl)-N-(prop-2-ynyl)amino]benzoyl-L-γ-glutamyl-N-methyl-L-glutamic acid] | – | – |
| – | – | C#CCN(Cc1ccc2nc(N)[nH]c(=O)c2c1)c1ccc(C(=O)N[C@@H](CCC(=O)O)C(=O)O)cc1 [CB3717] | promising activity | symptoms of toxicity in humans, particularly in relation to the liver and kidneys |
